The NIST ThermoML archive (doi:10.1016/j.jct.2008.07.012)
± gives the expanded uncertainty stated by the source.

Test: molar enthalpy of vaporization or sublimation
Conditions: 298.15 K; Crystal; Calvet Calorimetry

SMILES	molar enthalpy [kcal/mol]
O=[N+]([O-])c1ccccc1Cl [1-chloro-2-nitrobenzene]	19.3 ± 0.717
O=[N+]([O-])c1ccc(Cl)cc1 [1-chloro-4-nitrobenzene]	18.2 ± 1
O=[N+]([O-])c1cccc(Cl)c1 [1-chloro-3-nitrobenzene]	19.7 ± 0.717
